In patent US7541156B1, “Method of identifying antinociceptive compounds using protease activated receptor-2” (priority 2000, dated 2009):
Entries after “also recorded” stand apart in the source; their conditions may differ.

Tests used:
PAR-2 = molecular target: T1, PAR-2 (Homo sapiens, UniProt P55085); conditions: Blackhart et al. 1996; cited from earlier work
T1 sequence (P55085 26-397): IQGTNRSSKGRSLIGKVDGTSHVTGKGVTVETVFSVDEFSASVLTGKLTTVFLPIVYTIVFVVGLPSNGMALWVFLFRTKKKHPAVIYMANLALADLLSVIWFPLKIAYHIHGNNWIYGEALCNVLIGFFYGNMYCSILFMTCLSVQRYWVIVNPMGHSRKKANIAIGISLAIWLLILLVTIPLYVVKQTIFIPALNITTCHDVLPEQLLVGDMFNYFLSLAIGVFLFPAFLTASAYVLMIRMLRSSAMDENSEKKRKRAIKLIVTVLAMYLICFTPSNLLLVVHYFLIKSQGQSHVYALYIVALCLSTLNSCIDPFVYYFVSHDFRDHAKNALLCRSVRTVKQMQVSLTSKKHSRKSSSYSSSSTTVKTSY

[1] = test system: cultured adult rat thoracic DRG neurons; assay: CGRP release assay in cultured DRG neurons; type: cell-based
Procedure: Cell Culture. Primary cultures of rat DRG neurons were prepared from male adult Sprague Dawley rats (200-250 gm). Following enzymatic treatment and dissociation, neurons were spun through a percoll cushion (Hofbauer et al. 1998) and were plated at a density of 10,000-20,000 neurons/well of a 48 well tissue culture plate. Cultures were maintained in DME+10% FCS supplemented with penicillin/streptomycin, 150 μM uridine and 50 μM 5-fluoro-2-deoxyuridine (Nguyen et al. 1999). NGF (murine, recombinant, 2.5S; Promega, Madison, Wis.) was used at 50 ng/ml. Neurons were treated for five days before release experiments or Calcium-imaging studies were performed.
CGRP release assay. Immunoreactive calcitonin gene-related peptide (IR-CGRP) release from DRG cultures was performed as described by Hingtgen et al. (1995). Briefly, neuron cultures were washed with Release Buffer (RB) (25 mM Hepes, pH 7.4, 135 mM NaCl, 3.5 mM KCl, 2.5 mM CaCl2, 1 mM MgCl2, 3.3 mM Glucose, 0.1% BSA, 1 μM phosphoamidon), and were incubated for 10 min at 37° C. in RB plus 0.1% ethanol (Capsaicin vehicle) to measure basal CGRP release. Fresh RB containing the appropriate concentration of activating peptide (AcPep) or control peptide (CoPep) was added for an additional 10 minutes. Peptide treatment was followed by a 10 minute incubation with an appropriate dose of Capsaicin or KCl. IR-CGRP released by neurons was measured by ELISA. Activating peptide and control peptide were prepared by standard solid phase synthesis procedures by the UTMB Core Protein Facility.
CGRP Quantification. CGRP was quantified in a standard sandwich ELISA. In brief, 96-well “U” bottom microtiter ELISA plates (Dynex, Chantilly, Va.) were coated with affinity purified polyclonal rabbit antibody to rat CGRP (Peninsula Labs, Belmont, Calif.) at 3 μg/ml in 0.125M borate buffered saline (pH 8.1) (100 μl/well). The plates were incubated overnight at 37° C. The next day, the plates were washed three times with saline containing 0.05% Tween-20. Purified rat CGRP (Peninsula Labs) was used at a previously standardized concentration range of 25-1 ng/ml in a four-fold dilution to generate a standard curve. An equal volume of the sample was added in duplicate to a seventy-five μl/well of Tween-PBS (pH 7.1) and the plates were incubated for two hours on a shaker at room temperature. The plates were washed 3 times with Tween-PBS and 100 μl/well (0.2 mg/ml; 1:500 dilution) of in-house biotinylated, rabbit anti rat CGRP IgG (Peninsula Labs) was applied and incubated for two hours at room temperature. After three washes 150 μl of 1:1000 diluted streptavidine-horseradish peroxidase conjugate (Zymed, San Fransisco, Calif.) was added to each well and the plates were incubated for 90 min at room temperature. One-hundred-fifty μl/well of the substrate ortho-phenylene diamine dihydrochloride (Sigma Chemicals, St. Louis, Mo.) 0.4 mg/ml in citrate buffer (pH 4.9) was added after plates were washed three more times. Forty μl/100 ml of 30% H2O2 was added fresh to the citrate buffer just before adding to the wells to activate the coloring reaction. The reaction was stopped with 5N H2SO4 (50 μl/well) and the plates were read at 490 nm in an automated ELISA reader (Bio-Tek Instruments, Inc., Winooski, VE). The OD values were plotted against the CGRP standard curve and CGRP immunoreactivity was quantified using the appropriate formula and expressed as nanogram/ml.
Statistics. Release data are presented as the mean± standard error of the mean (SEM) of wells from three separate experiments. To compare the effects of activating peptide and control peptide on subsequent evoked release, an overall test based on the analysis of variance was performed (ANOVA). […] Intraductal injection studies were analyzed using a repeated measure ANOVA and individual means were compared using a Newman-Keuls multiple comparison test. Significance levels were set at p<0.05. […]

Substance: SLIGRL (PEPTIDE (1)..(6) PAR-2 activating peptide; listed as Rattus sp.) [AcPep]
- activation of PAR-2 (PAR-2): only activates PAR-2
- CGRP release induced by Capsaicin (50 nM) ([1]; 10 min pretreatment with peptide 10 μM, then Capsaicin 50 nM for 10 min in presence of peptide, mean of wells, three experiments): 7.3 ng/mL
- CGRP release induced by KCl (70 mM) ([1]; 10 min pretreatment with peptide 10 μM, then KCl 70 mM for 10 min in presence of peptide, mean of wells, three experiments): 2.7 ng/mL
- CGRP release by peptide alone (basal release) ([1]; peptide 10 μM alone, 10 minute incubation): did not significantly increase CGRP release; also recorded: does not induce CGRP release; also recorded: no effect on basal CGRP release
- KCl evoked IR-CGRP release, in words, versus CoPep ([1]; pre-treatment 10 μM for 10 minutes, KCl 70 mM): significantly higher increase; also recorded: significantly enhances
- Capsaicin-evoked CGRP release, in words, versus CoPep ([1]; pretreatment 10 μM for 10 minutes, Capsaicin 50 nM): significant increase; also recorded: significantly enhances
